Target: JAK2 (Homo sapiens, UniProt O60674)
Test: cell-free kinase activity assay with purified JAK2 (HotSpot, Reaction Biology)
Type: biochemical

Sequence of JAK2 (O60674 whole entry): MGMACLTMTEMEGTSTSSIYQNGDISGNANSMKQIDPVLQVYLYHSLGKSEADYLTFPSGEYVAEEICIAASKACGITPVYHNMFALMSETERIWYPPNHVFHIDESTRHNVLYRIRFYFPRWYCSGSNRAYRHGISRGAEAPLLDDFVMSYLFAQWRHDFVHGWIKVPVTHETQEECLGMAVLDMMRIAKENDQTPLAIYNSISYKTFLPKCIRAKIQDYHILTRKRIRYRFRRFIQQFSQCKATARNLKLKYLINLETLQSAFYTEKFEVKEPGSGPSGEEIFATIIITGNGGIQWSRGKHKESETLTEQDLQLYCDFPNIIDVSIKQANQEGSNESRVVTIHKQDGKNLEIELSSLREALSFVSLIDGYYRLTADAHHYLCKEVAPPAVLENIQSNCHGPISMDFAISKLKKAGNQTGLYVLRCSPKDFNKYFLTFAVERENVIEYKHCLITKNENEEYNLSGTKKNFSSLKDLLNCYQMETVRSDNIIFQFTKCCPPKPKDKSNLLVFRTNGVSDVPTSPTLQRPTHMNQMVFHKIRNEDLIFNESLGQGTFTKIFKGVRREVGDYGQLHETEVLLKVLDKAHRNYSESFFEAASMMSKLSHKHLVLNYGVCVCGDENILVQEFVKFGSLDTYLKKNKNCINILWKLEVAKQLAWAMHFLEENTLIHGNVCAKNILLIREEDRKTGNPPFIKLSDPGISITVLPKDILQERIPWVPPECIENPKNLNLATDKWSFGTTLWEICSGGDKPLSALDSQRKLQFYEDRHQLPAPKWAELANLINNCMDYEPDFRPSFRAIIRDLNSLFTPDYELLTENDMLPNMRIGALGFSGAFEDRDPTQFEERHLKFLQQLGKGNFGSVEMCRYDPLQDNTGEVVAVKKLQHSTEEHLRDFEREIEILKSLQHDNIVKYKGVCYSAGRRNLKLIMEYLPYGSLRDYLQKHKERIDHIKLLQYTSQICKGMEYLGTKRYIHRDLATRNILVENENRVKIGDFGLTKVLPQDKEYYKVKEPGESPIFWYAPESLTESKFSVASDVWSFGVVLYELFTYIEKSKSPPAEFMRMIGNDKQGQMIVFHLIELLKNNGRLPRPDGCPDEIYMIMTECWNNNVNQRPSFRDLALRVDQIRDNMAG

## COc1cc(/C=C/C(=O)CC(=O)/C=C/c2ccc(O)c(OC)c2)ccc1O [curcumin]
  IC50: ~8 µM
